Assay results from US8163771B2, “11 β-HSD1 modulators” (Exelixis, Inc., priority 2008, dated 2012).

Molecular target: T1, recombinant human 11 β-HSD1 (Homo sapiens, UniProt P28845)
T1 construct: made in house; host or cells: E. coli
Assay: 11 β-HSD1 SPA Assay (Scintillation Proximity Assay)
Assay type: biochemical
Procedure, shortened: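 Scintillation proximity read-out of cortisol formed from 40 nM [3H]cortisone by purified recombinant human enzyme (30-100 nM, E. coli) with 1 mM NADPH, pH7.4, 2 hours at room temperature; beads with cortisol antibody and glycyrrhetinic acid stop the reaction, read next day. IC50 derived from inhibition normalised to background and maximal wells.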

T1 sequence (P28845 whole entry): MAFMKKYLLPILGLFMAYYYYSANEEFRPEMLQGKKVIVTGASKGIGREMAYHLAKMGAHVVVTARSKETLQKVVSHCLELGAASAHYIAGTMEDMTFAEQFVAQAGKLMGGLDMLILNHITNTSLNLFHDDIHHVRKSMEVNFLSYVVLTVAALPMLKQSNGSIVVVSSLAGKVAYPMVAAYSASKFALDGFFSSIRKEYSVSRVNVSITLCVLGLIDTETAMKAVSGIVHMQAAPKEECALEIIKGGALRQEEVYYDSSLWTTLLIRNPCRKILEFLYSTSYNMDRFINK

Compound	IC50
CC(C)(Oc1ccccc1C(F)(F)F)C(=O)N[C@H]1C[C@H]2CC[C@@H](C1)N2c1ccc(C(=O)NCC(F)(F)F)cn1 [Example 112, 6-{3-endo-[(2-methyl-2-{[2-(trifluoromethyl)phenyl]oxy}propanoyl)amino]-8-azabicyclo[3.2.1]oct-8-yl}-N-(2,2,2-trifluoroethyl)pyridine-3-carboxamide]	< 200 nM
COc1cc(F)ccc1OC(C)(C)C(=O)N[C@H]1C[C@H]2CC[C@@H](C1)N2c1ccc(S(N)(=O)=O)cn1 [Example 221, N-{8-[5-(aminosulfonyl)pyridin-2-yl]-8-azabicyclo[3.2.1]oct-3-endo-yl}-2-{[4-fluoro-2-(methyloxy)phenyl]oxy}-2-methylpropanamide]	< 200 nM
Cc1ccc(OC(C)(C)C(=O)N[C@H]2C[C@H]3CC[C@@H](C2)N3c2ccc(S(N)(=O)=O)cn2)c(Cl)c1 [Example 213, N-{8-[5-(aminosulfonyl)pyridin-2-yl]-8-azabicyclo[3.2.1]oct-3-endo-yl}-2-[(2-chloro-4-methylphenyl)oxy]-2-methylpropanamide]	< 200 nM
C[C@H](NC(=O)c1ccc(N2C3CCC2CC(NC(=O)C(C)(C)Oc2ccc(Cl)cc2)C3)nc1)C(F)(F)F (stereo partly drawn) [Example 420, 6-(3-endo-{[2-(4-chlorophenoxy)-2-methylpropanoyl]amino}-8-azabicyclo[3.2.1]oct-8-yl)-N-[(2S)-1,1,1-trifluoropropan-2-yl]pyridine-3-carboxamide]	< 2000 nM
CC(C)(Oc1ccc(C(F)(F)F)cn1)C(=O)N[C@H]1C[C@H]2CC[C@@H](C1)N2c1ccc(C(N)=O)cn1 [Example 150]	< 200 nM
CC(C)(Oc1ncc(Cl)cc1F)C(=O)N[C@H]1C[C@H]2CC[C@@H](C1)N2c1ccc(C(=O)NCC(F)F)cn1 [Example 409, 6-(3-endo-(2-(5-chloro-3-fluoropyridin-2-yloxy)-2-methylpropanamido)-8-azabicyclo[3.2.1]octan-8-yl)-N-(2,2-difluoroethyl)nicotinamide]	< 200 nM
O=C(NC1CC1)c1ccc(N2[C@@H]3CC[C@H]2C[C@@H](NC(=O)C2(c4ccc(F)c(F)c4)CC2)C3)nc1 [Example 28, N-cyclopropyl-6-[3-endo-({[1-(3,4-difluorophenyl)cyclopropyl]carbonyl}amino)-8-azabicyclo[3.2.1]oct-8-yl]pyridine-3-carboxamide]	< 200 nM
CC(C)(Oc1ccc(Cl)cc1)C(=O)N[C@H]1C[C@H]2CC[C@@H](C1)N2c1ccc(C(=O)NCC(F)(F)F)cn1 [Example 27, 6-[3-endo-({2-[(4-chlorophenyl)oxy]-2-methylpropanoyl}amino)-8-azabicyclo[3.2.1]oct-8-yl]-N-(2,2,2-trifluoroethyl)pyridine-3-carboxamide]	< 200 nM
CC(C)(Oc1ccc(Cl)cc1S(C)(=O)=O)C(=O)N[C@H]1C[C@H]2CC[C@@H](C1)N2c1ccc(C(N)=O)cn1 [Example 334, 6-{3-endo-[(2-{[4-chloro-2-(methylsulfonyl)phenyl]oxy}-2-methylpropanoyl)amino]-8-azabicyclo[3.2.1]oct-8-yl}pyridine-3-carboxamide]	< 200 nM
CC(C)(Oc1ccc(Cl)cc1C(F)F)C(=O)N[C@H]1C[C@H]2CC[C@@H](C1)N2c1ccc(C(=O)NC2(CO)CC2)cn1 [Example 403, 6-(3-endo-(2-(4-chloro-2-(difluoromethyl)phenoxy)-2-methylpropanamido)-8-azabicyclo[3.2.1]octan-8-yl)-N-(1-(hydroxymethyl)cyclopropyl) nicotinamide]	< 200 nM
CC(C)(Oc1ccc(Cl)cc1Cl)C(=O)NC1CC2CCC(C1)N2c1ccc(C(=O)N2CC[C@H](O)C2)cn1 (stereo partly drawn) [Example 462, 2-(2,4-dichlorophenoxy)-N-[8-(5-{[(3s)-3-hydroxypyrrolidin-1-yl]carbonyl}pyridin-2-yl)-8-azabicyclo[3.2.1]oct-3-endo-yl]-2-methylpropanamide]	< 200 nM
CC(C)(Oc1ccc(Cl)cc1)C(=O)N[C@H]1C[C@H]2CC[C@@H](C1)N2c1cnccn1 [Example 66, 2-[(4-chlorophenyl)oxy]-2-methyl-N-(8-pyrazin-2-yl-8-azabicyclo[3.2.1]oct-3-endo-yl)propanamide]	< 200 nM
CC(C)(Oc1cc(F)c(F)cc1Cl)C(=O)N[C@H]1C[C@H]2CC[C@@H](C1)N2c1ccc(C(=O)NCC(F)F)cn1 [Example 442, 6-(3-endo-{[2-(2-chloro-4,5-difluorophenoxy)-2-methylpropanoyl]amino}-8-azabicyclo[3.2.1]oct-8-yl)-N-(2,2-difluoroethyl)pyridine-3-carboxamide]	< 200 nM
CC(C)(Oc1ccc(Cl)cc1Cl)C(=O)N[C@H]1C[C@H]2CC[C@@H](C1)N2c1ccc(C(=O)NCCN2CCCC2)cn1 [Example 340, 6-(3-endo-{[2-(2,4-dichlorophenoxy)-2-methylpropanoyl]amino}-8-azabicyclo[3.2.1]oct-8-yl)-N-[2-(pyrrolidin-1-yl)ethyl]pyridine-3-carboxamide]	< 200 nM
CC(C)(Oc1cc(C(C)(C)O)c(Cl)cc1Cl)C(=O)N[C@H]1C[C@H]2CC[C@@H](C1)N2c1ccc(C(=O)O)cn1 [Example 474, 6-[3-endo-({2-[2,4-dichloro-5-(2-hydroxypropan-2-yl)phenoxy]-2-methylpropanoyl}amino)-8-azabicyclo[3.2.1]oct-8-yl]pyridine-3-carboxylic acid]	< 2000 nM
O=C(NC1CC1)c1ccc(N2[C@@H]3CC[C@H]2C[C@@H](NC(=O)C2(c4ccc(Cl)cc4)CC2)C3)nc1 [Example 1, 6-[3-endo-({[1-(4-chlorophenyl)cyclopropyl]carbonyl}amino)-8-azabicyclo[3.2.1]oct-8-yl]-N-cyclopropylpyridine-3-carboxamide]	< 200 nM
O=C(NCC(F)(F)F)c1ccc(N2[C@@H]3CC[C@H]2C[C@@H](NC(=O)C2(c4cccc(F)c4)CC2)C3)nc1 [Example 123, 6-[3-endo-({[1-(3-fluorophenyl)cyclopropyl]carbonyl}amino)-8-azabicyclo[3.2.1]oct-8-yl]-N-(2,2,2-trifluoroethyl)pyridine-3-carboxamide]	< 200 nM
CC(C)(Oc1cc(F)c(C(C)(C)O)cc1Cl)C(=O)N[C@H]1C[C@H]2CC[C@@H](C1)N2c1ccc(C(=O)NCC(F)F)cn1 [Example 304, 6-[3-endo-({2-[2-chloro-5-fluoro-4-(2-hydroxypropan-2-yl)phenoxy]-2-methylpropanoyl}amino)-8-azabicyclo[3.2.1]oct-8-yl]-N-(2,2-difluoroethyl)pyridine-3-carboxamide]	< 200 nM
O=C(O)c1ccc(N2[C@@H]3CC[C@H]2C[C@@H](NC(=O)C2(c4ccc(Cl)cc4)CC2)C3)nc1 [Example 19, 6-[3-endo-({[1-(4-chlorophenyl)cyclopropyl]carbonyl}amino)-8-azabicyclo[3.2.1]oct-8-yl]pyridine-3-carboxylic acid]	< 2000 nM
CN(C)S(=O)(=O)c1cc(Cl)ccc1OC(C)(C)C(=O)N[C@H]1C[C@H]2CC[C@@H](C1)N2c1ccc(C(=O)NCC(F)(F)F)cn1 [Example 351, 6-[3-endo-({2-[4-chloro-2-(dimethylsulfamoyl)phenoxy]-2-methylpropanoyl}amino)-8-azabicyclo[3.2.1]oct-8-yl]-n-(2,2,2-trifluoroethyl)pyridine-3-carboxamide]	< 200 nM
CC(C)(Oc1c(F)cc(F)cc1F)C(=O)N[C@H]1C[C@H]2CC[C@@H](C1)N2c1ccc(S(C)(=O)=O)cc1 [Example 260, 2-methyl-N-{8-[4-(methylsulfonyl)phenyl]-8-azabicyclo[3.2.1]oct-3-endo-yl}-2-[(2,4,6-trifluorophenyl)oxy]propanamide]	< 200 nM
COc1cc(F)ccc1OC(C)(C)C(=O)N[C@H]1C[C@H]2CC[C@@H](C1)N2c1ccc(S(C)(=O)=O)cc1 [Example 222, 2-{[4-fluoro-2-(methyloxy)phenyl]oxy}-2-methyl-N-{8-[4-(methylsulfonyl)phenyl]-8-azabicyclo[3.2.1]oct-3-endo-yl}propanamide]	< 200 nM
O=C(NC1CC1)c1ccc(N2[C@@H]3CC[C@H]2C[C@@H](NC(=O)C2(c4ccc(Cl)cc4)CC2)C3)cc1F [Example 119, 4-[3-endo-({[1-(4-chlorophenyl)cyclopropyl]carbonyl}amino)-8-azabicyclo[3.2.1]oct-8-yl]-N-cyclopropyl-2-fluorobenzamide]	< 200 nM
CS(=O)(=O)Nc1ccc(N2[C@@H]3CC[C@H]2C[C@@H](NC(=O)C2(c4ccc(Cl)cc4)CC2)C3)nc1 [Example 60, 1-(4-chlorophenyl)-N-(8-{5-[(methylsulfonyl)amino]pyridin-2-yl}-8-azabicyclo[3.2.1]oct-3-endo-yl)cyclopropanecarboxamide]	< 200 nM
CC(C)(Oc1cc(F)c(Cl)cc1Cl)C(=O)N[C@H]1C[C@H]2CC[C@@H](C1)N2c1ccc(S(C)(=O)=O)cn1 [Example 236, 2-[(2,4-dichloro-5-fluorophenyl)oxy]-2-methyl-N-{8-[5-(methylsulfonyl)pyridin-2-yl]-8-azabicyclo[3.2.1]oct-3-endo-yl}propanamide]	< 200 nM
C[C@H](NC(=O)c1ccc(N2C3CCC2CC(NC(=O)C(C)(C)Oc2ccc(F)cc2F)C3)nc1)C(F)(F)F (stereo partly drawn) [Example 431, 6-(3-endo-{[2-(2,4-difluorophenoxy)-2-methylpropanoyl]amino}-8-azabicyclo[3.2.1]oct-8-yl)-N-[(2S)-1,1,1-trifluoropropan-2-yl]pyridine-3-carboxamide]	< 200 nM
CC(C)(CO)NC(=O)c1ccc(N2[C@@H]3CC[C@H]2C[C@@H](NC(=O)C(C)(C)Oc2ccc(Cl)cc2Cl)C3)nc1 [Example 395, 6-(3-endo-{[2-(2,4-dichlorophenoxy)-2-methylpropanoyl]amino}-8-azabicyclo[3.2.1]oct-8-yl)-N-(1-hydroxy-2-methylpropan-2-yl)pyridine-3-carboxamide]	< 200 nM
CC(C)(Oc1cc(C(C)(C)O)c(Cl)cc1Cl)C(=O)N[C@H]1C[C@H]2CC[C@@H](C1)N2c1ccc(C(=O)NCC(F)F)cn1 [Example 429, 6-[3-endo-({2-[2,4-dichloro-5-(2-hydroxypropan-2-yl)phenoxy]-2-methylpropanoyl}amino)-8-azabicyclo[3.2.1]oct-8-yl]-N-(2,2-difluoroethyl)pyridine-3-carboxamide]	< 200 nM
